Measurements reported in paper PMC10433800, “Dissecting the Arginine and Lysine Biosynthetic Pathways and Their Relationship in Haloarchaeon Natrinema gari J7-2 via Endogenous CRISPR-Cas System-Based Genome Editing” (Microbiology Spectrum, 2023).

Biological target: T1, NgArgX (Natrinema gari, UniProt L9YZH8)
T1 construct: gene C486_12678; ArgX with His tag (C-terminal in complementation plasmids), expressed in and partially purified from the J7-2 delta-argWX strain; carrier ArgW with N-terminal His tag purified from E. coli BL21(DE3); with Alpha-aminoadipate/glutamate carrier protein LysW/ArgW
T1 sequence (L9YZH8 1-291): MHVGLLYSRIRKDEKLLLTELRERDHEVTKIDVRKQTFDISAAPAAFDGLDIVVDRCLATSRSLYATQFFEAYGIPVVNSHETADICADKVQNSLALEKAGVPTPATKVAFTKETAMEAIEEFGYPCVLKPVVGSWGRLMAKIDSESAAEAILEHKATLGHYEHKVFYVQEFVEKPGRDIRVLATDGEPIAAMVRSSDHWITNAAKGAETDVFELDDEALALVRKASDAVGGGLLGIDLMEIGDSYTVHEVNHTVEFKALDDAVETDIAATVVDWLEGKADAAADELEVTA
Assay: LC-MS/MS of trypsin-digested NgArgW-glutamate product
Assay type: biochemical
Conditions: 10 mM glutamate, 20 mM ATP, 1 mM MgCl2, 0.1 mM ZnSO4, 3 M KCl, 100 mM HEPES pH 7.5, 45 °C, 12 h; glutamate ligated to Glu54 of NgArgW; enzyme partially purified

Q: For `N[C@@H](CCC(=O)O)C(=O)O` [glutamate], which “LC-MS/MS of trypsin-digested NgArgW-glutamate product” value is on record?
A: both NgArgX and NgArgXa specifically act on glutamate rather than AAA
